Test results reported in paper PMC6938011, “Antiplasmodial profile of selected compounds from Malaria Box: in vitro evaluation, speed of action and drug combination studies” (Malaria Journal, 2019).
pIC50: −log10 of the molar value. Entries after “also recorded” stand apart in the source; their conditions may differ. Like-named read-outs stand apart in the source and are kept apart here.

Tests used:
[1] = system: Hepatocarcinoma cells (HepG2); assay: Cytotoxicity evaluation, neutral red assay; assay type: cell-based, human; settings: HepG2, 72 h, read-out: IC50^HepG2, NR Average (confidence interval-95%)
Procedure: (§1) Hepatocarcinoma cells (HepG2) were cultivated in RPMI medium supplemented with 10% (v/v) fetal bovine serum and 0.2% (v/v) penicillin/streptomycin. The antibiotics were added to the medium to eliminate the potential interference of microbial contamination. Cells were cultivated at 37 °C and 5% CO2; the supplemented medium was changed every 2 days.
(§2) For the experimental procedures, cells were trypsinized and transferred to a 96-well plate at 30,000 cells per well and incubated at 37 °C overnight for cell adhesion. Then, serial dilutions of the inhibitor candidates were added to the plate. Cells without any compounds were used as positive growth controls. The plate was incubated at 37 °C and 5% CO2 for 72 h. After incubation, the highest compound concentration to be considered (highest concentration without precipitation) was observed by microscopy. Cytotoxicity was evaluated by two different methods. The first is a colorimetric assay based on metabolic cell activity in the presence of 3-(4,5-dimethylthiazol-2-yl)-2,5-diphenyltetrazolium bromide (MTT). Briefly, mitochondrial enzymes can convert the MTT dye into the purple insoluble compound formazan. To each well, 20 µL MTT at 5 mg/mL was added, followed by incubation at 37 °C for 3 to 5 h. After incubation, the supernatant was removed, and formazan crystals were solubilized in 100 µL DMSO. The absorbance, which is proportional to the number of viable cells, was determined using a SpectraMAX Plus 384 plate reader (Molecular Devices Corp., Sunnyvale, CA) (λ = 570 nm). The second method is based on the uptake of neutral red, a dye that is retained inside the lysosomes of viable cells. To each well, after removal of culture media, 200 µL neutral red medium 40 µg/mL was added, followed by incubation at 37 °C for 3 to 5 h. After incubation, supernatant was dispensed, and 200 µL 0.5% (v/v) formaldehyde in 1% (m/v) CaCl2 was added to remove excess of the dye for 5 min. Supernatant was dispensed, and 100 µL alcohol-acid solution (50% (v/v) ethanol, 1% (v/v) glacial acetic acid) was added, and the plate was stirred until a homogeneous solution was formed. The absorbance was determined using a SpectraMAX Plus 384 plate reader (Molecular Devices Corp., Sunnyvale, CA) (λ = 540 nm). For both methods, the half maximal inhibitory concentration (IC50^HepG2) was determined by non-linear regression analysis of the resulting concentration-response curve using the software Origin 2016 (OriginLab Corporation).

[2] = system: asexual intraerythrocytic stages of P. falciparum; assay: Speed of action studies (microscopy of thin blood smears); assay type: cell-based, Plasmodium falciparum; settings: ring-stage parasites; for Parasite morphology during incubation: compound at tenfold the IC50, microscopy up to 36 h; for Speed of action: compound at tenfold the IC50, observed 0-36 h
Procedure: Parasites in thin blood smears were observed by microscopy after 0, 8, 16, 24 and 36 h of incubation.

P. falciparum 3D7 strain [3] = assay: SYBR Green I inhibition assay for the asexual stages of P. falciparum; assay type: cell-based, Plasmodium falciparum; settings: 72 h, read-out: IC50^Pf Average (confidence interval-95%)
Procedure: The P. falciparum 3D7 strain was kept in culture in a humidified incubator at 37 °C in RPMI-1640 medium with 25 mM NaHCO3, 25 mM HEPES (pH 7.4), 11 mM D-glucose, 3.67 mM hypoxanthine and 25 µg/mL gentamicin, supplemented with 0.5% (m/v) AlbuMAX II. The culture medium was changed daily, and the parasitaemia was maintained below 10% with 2.5% haematocrit in human erythrocytes.
The parasites were synchronized through sterile 5% (m/v) D-sorbitol treatment over 10 min at 37 °C for the enrichment of ring-stage parasites. The cultures were pelleted by centrifugation at 600×g over 5 min. The parasitaemia was determined by microscope analysis of thin blood smears stained with Giemsa 10% (v/v) after methanol fixation. The initial parasitaemia was calculated from 1000 red blood cells (RBCs), and cultures were diluted to 0.5% parasitaemia and 2% haematocrit by adding the appropriate volumes of erythrocytes and medium. Parasite aliquots of 180 µL were distributed into 96-well plates previously prepared with 20 µL aliquots of a tenfold concentrated compound. Negative and positive control wells corresponding to non-parasitized erythrocytes and parasite cultures in the absence of compounds were set in parallel. The DMSO concentration was maintained below 0.05% (v/v). The plates were incubated for 72 h at 37 °C in a humidified incubator with a gas mixture of 90% N2, 5% O2 and 5% CO2. After incubation, the culture medium was removed, and the cells were resuspended in 100 µL PBS buffer (116 mM NaCl, 10 mM Na2HPO4, 3 mM KH2PO4) and lysed with 100 µL lysis buffer (20 mM Tris base, 5 mM EDTA, 0.0008% (v/v) Triton X-100, 0.008% (m/v) saponin, pH 8.0) containing 0.002% (v/v) SYBR Green I. Plates were incubated at room temperature for 30 min, and the fluorescence corresponding to the parasitic density was determined using a SpectraMAX Gemini EM plate reader (Molecular Devices Corp., Sunnyvale, CA) (excitation at 485 nm, emission at 535 nm). The half maximal inhibitory concentration (IC50^Pf) was determined by non-linear regression analysis of the resulting concentration-response curve using the software Origin 2016 (OriginLab Corporation).

P. falciparum 3D7 strain [4] = system: P. falciparum 3D7 strain; design: method as in PMID 23798988; settings: reported potency of Malaria Box compounds ref 13, read-out: Reported IC50^Pf; cited from earlier work
P. falciparum [5] = assay: Combination assays, isobologram analysis (FIC50 pairs); assay type: cell-based, Plasmodium falciparum; settings: for Isobologram data, Additive: number of FIC50 pairs / Isobologram data, Antagonistic: fraction of FIC50 pairs / Isobologram data, Antagonistic: number of FIC50 pairs / Isobologram data, Synergic: number of FIC50 pairs / Isobologram data, Additive: fraction of FIC50 pairs: combination with artesunate; for Combination profile with artesunate: isobologram, IC50 equivalent ratios 1:4, 2:3, 1:1, 3:2, 4:1
Procedure: Combinations of anti-malarial candidates with artesunate, an artemisinin derivative, were tested in fixed molar ratios based on the individual IC50 values that were previously determined by the SYBR Green I assay. Traditionally, a line (isobole) of additivity is used to distinguish between additive, synergic, and antagonistic interaction profiles. […] Thus, a systematic consideration of additivity ranges was included in the isobologram analysis, as previously described by Grabovsky and Tallarida. Concentration-response curves of individual compounds were used in the calculation of each pair’s additivity range (area within the upper and lower limits in Figs. 4 and 5). Fractional inhibitory concentration (FIC50) pairs plotted as points inside the additivity range indicate the expected sum of each compound effect, while points above and below the range indicate antagonistic and synergic interactions, respectively. The selected inhibitors were combined with artesunate in the IC50 equivalent ratios of 1:4, 2:3, 1:1, 3:2 and 4:1 for the construction of the isobolograms.

[6] = system: Hepatocarcinoma cells (HepG2); assay: Cytotoxicity evaluation, MTT assay; assay type: cell-based, human; settings: HepG2, 72 h, read-out: IC50^HepG2, MTT Average (confidence interval-95%)
Procedure: as §1, §2

P. falciparum [7] = settings: in vitro ref 34; cited from earlier work
P. berghei NK65 strain = assay: In vivo suppressive parasite growth test against Plasmodium berghei; design: species or system Swiss outbred mice; settings: 20 mg/kg, positive control, P. berghei-infected mice
Procedure: A suppressive parasite growth test was performed in mice infected with P. berghei NK65 strain (originally received from the New York University Medical School), as described previously, with some modifications. Briefly, adult Swiss outbred mice (20 ± 2 g weight) were intraperitoneally inoculated with 1 × 10^5 red blood cells infected with P. berghei. The infected mice were maintained together for at least 2 h and then randomized into groups of 5 animals per cage, which were subsequently administered 50 mg/kg of each compound diluted in 3% (v/v) DMSO by oral gavage daily for 3 days. Two control groups were used in parallel: one was treated with CQ (20 mg/kg) and the other was treated with the vehicle. Blood smears from mouse tails were prepared on days 5 and 7 post-infection and then fixed with methanol, stained with Giemsa 10% (v/v), and examined under the microscope.

| Structure (SMILES) | pIC50 [1] | Parasite morphology during incubation [2] | Speed of action [2] | pIC50 (P. falciparum 3D7 strain [3]) | pIC50 (P. falciparum 3D7 strain [4]) | Isobologram data, Additive: number of FIC50 pairs (P. falciparum [5]) | Isobologram data, Antagonistic: fraction of FIC50 pairs (P. falciparum [5]) [%] | Isobologram data, Antagonistic: number of FIC50 pairs (P. falciparum [5]) | Isobologram data, Synergic: number of FIC50 pairs (P. falciparum [5]) | Combination profile with artesunate (P. falciparum [5]) | pIC50 [6] | Isobologram data, Additive: fraction of FIC50 pairs (P. falciparum [5]) [%] | further results |
| --- | --- | --- | --- | --- | --- | --- | --- | --- | --- | --- | --- | --- | --- |
| Fc1ccc2[nH]c3c(NCCCN4CCOCC4)ncnc3c2c1 [Compound 11] | < 4.30 | punctual shapes after 16 h | Fast | 5.80 | 6.46 | 0 | 100 | 12 | 0 | antagonistic; also recorded: Antagonism | < 4.30 |  |  |
| C[C@H]1[C@H](OC(=O)CCC(=O)O)O[C@@H]2O[C@@]3(C)CC[C@H]4[C@H](C)CC[C@@H]1[C@@]24OO3 [Artesunate, reference compound] |  |  |  |  | 8.10 | 15 |  | 0 | 0 | Additivity |  | 100 | pIC50 ([1]; Homo sapiens): 3.96; pIC50 (P. falciparum 3D7 strain [3]; Plasmodium falciparum): 7.77; Combination profile with artesunate (P. falciparum [5]; listed as artesunate): additive; Speed of action (literature) (P. falciparum [7]): fast; pIC50 ([6]; Homo sapiens): 3.96 |
| CN1CCN(c2ccc(Nc3c4ccccc4nc4ccccc34)cc2)CC1 [Compound 1] | 5.48 | pyknotic nuclei formation | Fast | 7.13 | 6.85 | 1 | 92 | 11 | 0 | antagonistic | 5.49 | 8 | Combination profile with artesunate (P. falciparum [5]; listed as 01): Antagonism |
| CCn1c(CN2CCN(Cc3ccccc3)CC2)nc2cc(NC(=O)c3cccs3)ccc21 [Compound 5] | < 4.00 | punctual shapes after 16 h | fast-acting and Fast | 6.60 | 6.29 | 2 | 85 | 11 | 0 |  | 4.05 | 15 | Combination profile with artesunate (P. falciparum [5]; listed as 05): Antagonism |
| O=[N+]([O-])c1ccc(C=NNc2nc3ccccc3[nH]2)cc1 [Compound 4] | < 5.20 | young trophozoites were observed after 36 h | slow-acting and Slow | 6.36 | 6.85 | 1 | 92 | 12 | 0 |  | < 5.20 | 8 | Combination profile with artesunate (P. falciparum [5]; listed as 04): Antagonism |
| O=C(Nc1ccc(C23CC4CC(CC(c5ccccc5)(C4)C2)C3)cc1)c1cccs1 [Compound 7] | < 4.60 | punctual shapes after 16 h | fast-acting and Fast | 6.00 | 6.08 | 2 | 78 | 7 | 0 |  | < 4.60 | 22 | Combination profile with artesunate (P. falciparum [5]; listed as 07): Antagonism |
| Brc1ccc(Nc2nc3ccccc3nc2Nc2ccc(Br)cc2)cc1 [Compound 3] | < 5.20 | punctual shapes after 16 h | Fast | 6.47 | 5.97 | 5 | 62 | 8 | 0 |  | 5.29 | 38 | Combination profile with artesunate (P. falciparum [5]; listed as 03): Antagonism |
| CCN(CC)CCCC(C)Nc1ccnc2cc(Cl)ccc12 (stereo not shown) [Chloroquine, reference compound] |  |  |  |  |  |  |  |  |  |  |  |  | % of reduction of parasitaemia, day 5 after infection (P. berghei NK65 strain): 100%; % of reduction of parasitaemia, day 7 after infection (P. berghei NK65 strain): 100% |
